Measurements published in ChEMBL document CHEMBL5614405 (J Med Chem, 2024).
Blank lines part the entries; values can stand above or below the compound they belong to. Active and inactive are the calls of the source. The calls are words filed in the database; no cut-off is given here.

What was measured:
[1] = target: T1, Rho-associated protein kinase 1 (Homo sapiens, UniProt Q13464); experiment: Inhibition of ROCK1 (unknown origin) incubated for 10 mins in presence of ATP by mobility shift assay
Target sequence in this assay (Q13464 whole entry): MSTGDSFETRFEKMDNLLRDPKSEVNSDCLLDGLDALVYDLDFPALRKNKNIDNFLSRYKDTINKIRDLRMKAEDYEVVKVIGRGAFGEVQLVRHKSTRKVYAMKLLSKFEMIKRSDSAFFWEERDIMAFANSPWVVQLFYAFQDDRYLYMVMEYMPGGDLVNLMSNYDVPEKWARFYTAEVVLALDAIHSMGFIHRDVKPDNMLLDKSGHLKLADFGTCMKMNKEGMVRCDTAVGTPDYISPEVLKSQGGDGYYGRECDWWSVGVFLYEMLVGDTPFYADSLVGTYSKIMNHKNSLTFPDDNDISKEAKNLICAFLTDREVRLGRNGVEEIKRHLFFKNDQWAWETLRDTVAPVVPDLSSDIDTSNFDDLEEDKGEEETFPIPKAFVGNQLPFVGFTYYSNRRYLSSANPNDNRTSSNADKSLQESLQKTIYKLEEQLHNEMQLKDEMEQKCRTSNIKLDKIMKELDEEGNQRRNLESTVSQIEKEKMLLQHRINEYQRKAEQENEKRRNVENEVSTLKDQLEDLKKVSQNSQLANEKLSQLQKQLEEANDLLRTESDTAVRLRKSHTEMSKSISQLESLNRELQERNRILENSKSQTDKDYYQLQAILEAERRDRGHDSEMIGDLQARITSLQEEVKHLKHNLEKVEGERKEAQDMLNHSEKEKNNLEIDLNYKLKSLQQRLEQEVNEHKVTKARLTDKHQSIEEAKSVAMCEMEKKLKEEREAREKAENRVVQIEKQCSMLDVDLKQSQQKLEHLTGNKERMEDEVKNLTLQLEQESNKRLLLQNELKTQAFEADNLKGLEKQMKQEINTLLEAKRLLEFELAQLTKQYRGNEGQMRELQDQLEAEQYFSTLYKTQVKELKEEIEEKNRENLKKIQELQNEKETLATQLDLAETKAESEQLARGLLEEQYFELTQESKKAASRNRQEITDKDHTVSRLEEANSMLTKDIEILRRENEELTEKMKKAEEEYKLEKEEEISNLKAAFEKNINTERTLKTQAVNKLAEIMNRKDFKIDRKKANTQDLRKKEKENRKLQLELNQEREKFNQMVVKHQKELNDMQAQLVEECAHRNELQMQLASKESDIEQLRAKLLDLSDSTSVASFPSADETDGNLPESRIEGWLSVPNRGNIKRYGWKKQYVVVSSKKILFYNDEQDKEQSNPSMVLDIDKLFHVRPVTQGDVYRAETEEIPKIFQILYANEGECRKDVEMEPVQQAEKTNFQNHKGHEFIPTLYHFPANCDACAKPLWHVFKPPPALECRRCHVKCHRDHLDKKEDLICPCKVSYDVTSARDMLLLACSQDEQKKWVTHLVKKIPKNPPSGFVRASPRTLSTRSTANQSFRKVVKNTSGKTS

[2] = target: T2, Rho-associated protein kinase 2 (Homo sapiens, UniProt O75116); experiment: Inhibition of ROCK2 (unknown origin) incubated for 60 mins in presence of ATP by mobility shift assay
Target sequence in this assay (O75116 whole entry): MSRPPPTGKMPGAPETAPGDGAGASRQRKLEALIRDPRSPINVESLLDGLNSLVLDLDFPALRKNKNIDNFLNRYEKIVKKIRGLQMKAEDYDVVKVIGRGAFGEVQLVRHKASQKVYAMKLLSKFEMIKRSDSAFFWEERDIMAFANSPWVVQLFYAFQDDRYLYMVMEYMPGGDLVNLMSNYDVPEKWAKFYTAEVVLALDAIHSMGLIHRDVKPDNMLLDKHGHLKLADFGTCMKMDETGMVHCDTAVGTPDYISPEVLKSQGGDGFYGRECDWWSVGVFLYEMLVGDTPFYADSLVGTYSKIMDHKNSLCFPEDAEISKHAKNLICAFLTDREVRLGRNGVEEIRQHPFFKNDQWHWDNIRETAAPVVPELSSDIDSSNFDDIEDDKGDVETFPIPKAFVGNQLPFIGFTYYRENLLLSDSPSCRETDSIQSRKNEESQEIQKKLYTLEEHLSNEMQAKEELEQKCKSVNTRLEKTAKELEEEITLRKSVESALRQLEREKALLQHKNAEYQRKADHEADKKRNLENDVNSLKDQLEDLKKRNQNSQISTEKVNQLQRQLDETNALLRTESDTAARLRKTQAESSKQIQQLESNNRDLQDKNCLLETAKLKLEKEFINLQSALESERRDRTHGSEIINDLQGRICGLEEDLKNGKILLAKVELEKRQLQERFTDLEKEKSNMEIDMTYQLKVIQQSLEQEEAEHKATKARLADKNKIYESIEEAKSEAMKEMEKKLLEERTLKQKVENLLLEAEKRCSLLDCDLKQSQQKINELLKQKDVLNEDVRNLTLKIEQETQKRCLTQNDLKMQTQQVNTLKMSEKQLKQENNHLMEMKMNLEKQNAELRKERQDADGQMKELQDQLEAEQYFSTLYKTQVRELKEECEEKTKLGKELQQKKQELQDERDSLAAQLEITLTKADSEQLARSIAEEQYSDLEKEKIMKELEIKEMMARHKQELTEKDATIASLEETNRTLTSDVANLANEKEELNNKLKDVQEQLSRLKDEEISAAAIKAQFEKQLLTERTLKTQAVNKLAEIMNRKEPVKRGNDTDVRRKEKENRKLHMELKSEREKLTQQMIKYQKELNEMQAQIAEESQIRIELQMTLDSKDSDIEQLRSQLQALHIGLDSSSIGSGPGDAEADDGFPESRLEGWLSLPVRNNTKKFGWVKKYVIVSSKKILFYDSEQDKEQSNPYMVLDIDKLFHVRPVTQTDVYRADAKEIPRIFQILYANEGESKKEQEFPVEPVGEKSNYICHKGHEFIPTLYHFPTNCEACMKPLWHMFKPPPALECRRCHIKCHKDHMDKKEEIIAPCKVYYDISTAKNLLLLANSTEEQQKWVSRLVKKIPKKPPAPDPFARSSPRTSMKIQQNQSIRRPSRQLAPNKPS

Oryctolagus cuniculus [3] = experiment: Anti-glaucoma activity in methylcellulose-induced acute intraocular hypertensive New Zealand rabbit model assessed as reduction in intraocular pressure at 1.55 mM,TOP administration on conjunctival sac measured for 1 to 4 hrs; type: functional, organism-based; conditions: time 1-4 hrs
Oryctolagus cuniculus [4] = experiment: Anti-glaucoma activity in methylcellulose-induced acute intraocular hypertensive New Zealand rabbit model assessed as reduction in intraocular pressure at 1.55 mM,TOP administration on conjunctival sac measured for 5 to 7 hrs; type: functional, organism-based; conditions: time 5-7 hrs
[5] = Toxicity in chicken embryo chorioallantoic membrane assessed as irritation score at 1.55 mM measured after 5 mins by microscopic analysis relative to Netarsudil; type: tissue-based, Gallus gallus; conditions: in vivo, 1550 µM
[6] = Toxicity in chicken embryo chorioallantoic membrane assessed as irritation score at 1.55 mM measured after 5 mins by microscopic analysis relative to Latanoprost; type: tissue-based, Gallus gallus; conditions: in vivo, 1550 µM
[7] = target: T1, Rho-associated protein kinase 1; experiment: Inhibition of ROCK1 (unknown origin) assessed as fold change at 3 uM incubated for 10 mins in presence of ATP by mobility shift assay relative to control
Target sequence in this assay (Q13464 2-1354 limits assumed): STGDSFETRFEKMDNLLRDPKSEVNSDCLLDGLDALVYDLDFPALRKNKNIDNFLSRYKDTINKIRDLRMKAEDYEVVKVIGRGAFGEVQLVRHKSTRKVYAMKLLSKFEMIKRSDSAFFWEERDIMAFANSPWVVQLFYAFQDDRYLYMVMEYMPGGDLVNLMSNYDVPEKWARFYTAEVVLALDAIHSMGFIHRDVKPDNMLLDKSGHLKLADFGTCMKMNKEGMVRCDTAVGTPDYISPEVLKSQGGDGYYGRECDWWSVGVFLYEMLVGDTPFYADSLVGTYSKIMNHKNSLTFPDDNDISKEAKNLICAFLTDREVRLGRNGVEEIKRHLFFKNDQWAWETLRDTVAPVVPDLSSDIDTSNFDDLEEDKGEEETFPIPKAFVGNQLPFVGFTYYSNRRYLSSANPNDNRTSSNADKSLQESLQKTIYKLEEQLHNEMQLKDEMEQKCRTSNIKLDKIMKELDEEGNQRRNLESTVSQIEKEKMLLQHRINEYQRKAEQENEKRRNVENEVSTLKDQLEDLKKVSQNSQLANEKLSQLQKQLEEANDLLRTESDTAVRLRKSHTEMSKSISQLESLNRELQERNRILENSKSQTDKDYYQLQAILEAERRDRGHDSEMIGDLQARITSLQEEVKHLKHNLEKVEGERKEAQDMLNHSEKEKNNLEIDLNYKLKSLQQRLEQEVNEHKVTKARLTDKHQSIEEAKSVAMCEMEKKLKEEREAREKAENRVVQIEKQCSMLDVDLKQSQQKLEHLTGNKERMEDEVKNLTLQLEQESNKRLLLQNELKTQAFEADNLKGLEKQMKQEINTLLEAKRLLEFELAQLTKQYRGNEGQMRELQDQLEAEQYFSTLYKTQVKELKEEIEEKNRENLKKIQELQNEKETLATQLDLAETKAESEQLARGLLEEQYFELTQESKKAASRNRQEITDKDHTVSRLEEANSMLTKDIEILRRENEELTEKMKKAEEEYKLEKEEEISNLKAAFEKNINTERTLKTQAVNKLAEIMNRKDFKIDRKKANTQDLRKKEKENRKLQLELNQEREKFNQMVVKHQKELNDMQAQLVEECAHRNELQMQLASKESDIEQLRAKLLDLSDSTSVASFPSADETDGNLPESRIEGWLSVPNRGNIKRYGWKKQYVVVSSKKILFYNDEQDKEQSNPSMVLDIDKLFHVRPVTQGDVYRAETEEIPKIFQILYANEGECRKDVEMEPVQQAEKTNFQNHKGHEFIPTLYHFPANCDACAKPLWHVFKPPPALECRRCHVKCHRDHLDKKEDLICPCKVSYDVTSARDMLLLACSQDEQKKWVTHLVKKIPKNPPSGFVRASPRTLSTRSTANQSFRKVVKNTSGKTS

[8] = target: T2, Rho-associated protein kinase 2; experiment: Inhibition of ROCK2 (unknown origin) assessed as fold change at 3 uM incubated for 60 mins in presence of ATP by mobility shift assay
Target sequence in this assay (O75116 whole entry, looked up): as the sequence (O75116 whole entry) above

Oryctolagus cuniculus [9] = experiment: (§1) Anti-glaucoma activity in methylcellulose-induced acute intraocular hypertensive New Zealand rabbit model assessed as reduction in intraocular pressure at 1.55 mM,TOP administration on conjunctival sac measured upto 24 hrs relative to Netarsudil; type: functional, organism-based
Oryctolagus cuniculus [10] = experiment: as §1, with “(R)-4-(3-amino-1-(isoquinolin-6-ylamino)-1-oxopropan-2-yl)benzyl 3-((nitrooxy)methyl)benzoate Dimethanesulfonate” for “Netarsudil”; type: functional, organism-based
Oryctolagus cuniculus [11] = experiment: Anti-glaucoma activity in methylcellulose-induced acute intraocular hypertensive New Zealand rabbit model assessed as reduction in intraocular pressure at 441.27 uM,TOP administration on conjunctival sac measured after 3 hrs relative to Netarsudil; type: functional, organism-based
Oryctolagus cuniculus [12] = experiment: Anti-glaucoma activity in methylcellulose-induced acute intraocular hypertensive New Zealand rabbit model assessed as reduction in intraocular pressure at 441.27 uM,TOP administration on conjunctival sac measured for 4 to 24 hrs relative to Netarsudil; type: functional, organism-based; conditions: time 4-24 hrs
Mus musculus [13] = experiment: Anti-glaucoma activity in magnetic microbead induced occlusion C57BL/6J mouse model assessed as reduction in intraocular pressure at 441.27 uM,TOP administration on right eye measured after 1 hr by tonometric analysis; type: functional, organism-based
Mus musculus [14] = experiment: Anti-glaucoma activity in magnetic microbead induced occlusion C57BL/6J mouse model assessed as reduction in intraocular pressure at 441.27 uM,TOP administration on right eye measured upto 8 hr by tonometric analysis relative to Netarsudil; type: functional, organism-based
Mus musculus [15] = experiment: Anti-glaucoma activity in magnetic microbead induced occlusion C57BL/6J mouse model assessed as increase in retinal ganglion cell population at 441.27 uM,TOP administrated on right eye thrice a day for 21 days by immunofluorescence based confocal microscopic analysis; type: functional, organism-based; conditions: time 21.0 day
Mus musculus [16] = experiment: Anti-glaucoma activity in magnetic microbead induced occlusion C57BL/6J mouse model assessed as increase in retinal ganglion cell population at 441.27 uM,TOP administrated on right eye thrice a day for 21 days by immunofluorescence based confocal microscopic analysis relative to Netarsudil; type: functional, organism-based; conditions: time 21.0 day
Mus musculus [17] = experiment: Anti-glaucoma activity in magnetic microbead induced occlusion C57BL/6J mouse model assessed as increase in retinal ganglion cell density at 441.27 uM,TOP administrated on right eye thrice a day for 21 days by immunofluorescence based confocal microscopic analysis relative to control; type: functional, organism-based; conditions: time 21.0 day
[18] = Unbound drug concentration in New Zealand rabbit cornea at 1.55 mM TOP administration on eye measured upto 1 hr by LC-MS/MS analysis; type: ADME, tissue-based, Oryctolagus cuniculus; conditions: in vivo, topical_or_ocular, 1550 µM
[19] = Drug metabolism in New Zealand rabbit cornea assessed as 3-(hydroxymethyl)benzoic acid metabolite formation at 1.55 mM TOP administration on eye measured upto 1 hr by LC-MS/MS analysis; type: ADME, tissue-based, Oryctolagus cuniculus; conditions: in vivo, topical_or_ocular, 1550 µM
[20] = Unbound drug concentration in New Zealand rabbit cornea at 1.55 mM TOP administration on eye measured upto 3 hr by LC-MS/MS analysis; type: ADME, tissue-based, Oryctolagus cuniculus; conditions: in vivo, topical_or_ocular, 1550 µM
[21] = Drug metabolism in New Zealand rabbit cornea assessed as 3-(hydroxymethyl)benzoic acid metabolite formation at 1.55 mM TOP administration on eye measured upto 3 hr by LC-MS/MS analysis; type: ADME, tissue-based, Oryctolagus cuniculus; conditions: in vivo, topical_or_ocular, 1550 µM
[22] = Drug metabolism in New Zealand rabbit cornea assessed as 3-(hydroxymethyl)benzoic acid metabolite formation at 1.55 mM TOP administration on eye measured after 4 hr by LC-MS/MS analysis; type: ADME, tissue-based, Oryctolagus cuniculus; conditions: in vivo, topical_or_ocular, 1550 µM
[23] = Drug metabolism in New Zealand rabbit cornea assessed as 3-((nitrooxy)methyl)benzoic acid metabolite formation at 1.55 mM TOP administration on eye measured upto 6 hr by LC-MS/MS analysis; type: ADME, tissue-based, Oryctolagus cuniculus; conditions: in vivo, topical_or_ocular, 1550 µM
[24] = Drug metabolism in New Zealand rabbit aqueous humor of eyeball assessed as (S)-3-amino-2-(4-(hydroxymethyl)phenyl)-N-(isoquinolin-6-yl)propanamide Dimethanesulfonate metabolite formation at 1.55 mM TOP administration on eye measured after 4 hrs by LC-MS/MS analysis; type: ADME, Oryctolagus cuniculus; conditions: in vivo, topical_or_ocular, 1550 µM
[25] = Drug metabolism in New Zealand rabbit aqueous humor of eyeball assessed as 3-(hydroxymethyl)benzoic acid metabolite formation at 1.55 mM TOP administration on eye measured after 4 hrs by LC-MS/MS analysis; type: ADME, Oryctolagus cuniculus; conditions: in vivo, topical_or_ocular, 1550 µM
[26] = Drug metabolism in New Zealand rabbit aqueous humor of eyeball assessed as (S)-3-amino-2-(4-(hydroxymethyl)phenyl)-N-(isoquinolin-6-yl)propanamide Dimethanesulfonate metabolite formation at 1.55 mM TOP administration on eye measured after 4 to 6 hrs by LC-MS/MS analysis; type: ADME, tissue-based, Oryctolagus cuniculus; conditions: in vivo, topical_or_ocular, 1550 µM, time 4-6 hrs
[27] = Drug metabolism in New Zealand rabbit aqueous humor of eyeball assessed as 3-(hydroxymethyl)benzoic acid metabolite formation at 1.55 mM TOP administration on eye measured after 4 to 6 hrs by LC-MS/MS analysis; type: ADME, Oryctolagus cuniculus; conditions: in vivo, topical_or_ocular, 1550 µM, time 4-6 hrs
[28] = Unbound drug concentration in New Zealand rabbit aqueous humor of eyeball at 1.55 mM TOP administration on eye measured upto 6 hr by LC-MS/MS analysis; type: ADME, tissue-based, Oryctolagus cuniculus; conditions: in vivo, topical_or_ocular, 1550 µM
[29] = Drug metabolism in New Zealand rabbit aqueous humor of eyeball assessed as 3-((nitrooxy)methyl)benzoic acid metabolite formation at 1.55 mM TOP administration on eye measured upto 6 hrs by LC-MS/MS analysis; type: ADME, tissue-based, Oryctolagus cuniculus; conditions: in vivo, topical_or_ocular, 1550 µM
[30] = Drug metabolism in New Zealand rabbit aqueous humor of eyeball assessed as 3-(hydroxymethyl)benzoic acid metabolite formation at 1.55 mM TOP administration on eye measured after 4 hr by LC-MS/MS analysis; type: ADME, tissue-based, Oryctolagus cuniculus; conditions: in vivo, topical_or_ocular, 1550 µM
[31] = Toxicity in New Zealand rabbit assessed as appearance of conjunctival congestion by measuring ocular irritation score at 0.03 % TOP administration on left eye measured after 1 day by draize eye irritation test; type: tissue-based, Oryctolagus cuniculus; conditions: in vivo, topical_or_ocular, 24 h
[32] = Toxicity in New Zealand rabbit assessed as appearance of conjunctival congestion by measuring ocular irritation score at 0.03 % TOP administration on left eye measured after 2 days by draize eye irritation test; type: tissue-based, Oryctolagus cuniculus; conditions: in vivo, topical_or_ocular, 48 h, time 2 day
[33] = Toxicity in New Zealand rabbit assessed as appearance of conjunctival congestion by measuring ocular irritation score at 0.03 % TOP administration on left eye measured after 3 days by draize eye irritation test; type: tissue-based, Oryctolagus cuniculus; conditions: in vivo, topical_or_ocular, 72 h, time 3 day
[34] = Toxicity in New Zealand rabbit assessed as appearance of conjunctival congestion by measuring ocular irritation score at 0.03 % TOP administration on left eye measured after 4 days by draize eye irritation test; type: tissue-based, Oryctolagus cuniculus; conditions: in vivo, topical_or_ocular, 96 h, time 4 day
[35] = Toxicity in New Zealand rabbit assessed as appearance of conjunctival congestion by measuring ocular irritation score at 0.03 % TOP administration on left eye measured after 5 days by draize eye irritation test; type: tissue-based, Oryctolagus cuniculus; conditions: in vivo, topical_or_ocular, 120 h, time 5 day
[36] = Toxicity in New Zealand rabbit assessed as appearance of conjunctival congestion by measuring ocular irritation score at 0.03 % TOP administration on left eye measured after 6 days by draize eye irritation test; type: tissue-based, Oryctolagus cuniculus; conditions: in vivo, topical_or_ocular, 144 h, time 6 day
[37] = Toxicity in New Zealand rabbit assessed as appearance of conjunctival congestion by measuring ocular irritation score at 0.03 % TOP administration on left eye measured after 7 days by draize eye irritation test; type: tissue-based, Oryctolagus cuniculus; conditions: in vivo, topical_or_ocular, 168 h, time 7 day
[38] = Toxicity in chicken embryo chorioallantoic membrane assessed as irritation score at 1.55 mM measured after 5 mins in presence of PTIO by microscopic analysis; type: tissue-based, Gallus gallus; conditions: in vivo, 1550 µM
[39] = Toxicity in chicken embryo chorioallantoic membrane assessed as irritation score at 1.55 mM measured after 5 mins in presence of NS 2028 by microscopic analysis; type: tissue-based, Gallus gallus; conditions: in vivo, 1550 µM
[40] = Drug metabolism in New Zealand rabbit cornea assessed as (S)-3-amino-2-(4-(hydroxymethyl)phenyl)-N-(isoquinolin-6-yl)propanamide Dimethanesulfonate metabolite formation at 1.55 mM TOP administration on eye measured upto 6 hrs by LC-MS/MS analysis; type: ADME, tissue-based, Oryctolagus cuniculus; conditions: in vivo, topical_or_ocular, 1550 µM

- IC50 [1]: 2.54 nM
- IC50 [2]: 1.48 nM
Structure (SMILES): CS(=O)(=O)O.CS(=O)(=O)O.NCC(C(=O)Nc1ccc2cnccc2c1)c1ccc(COC(=O)c2cccc(CO[N+](=O)[O-])c2)cc1 (stereo not drawn)
- Activity (Oryctolagus cuniculus [3]): Active
- Activity (Oryctolagus cuniculus [4]): Active
- Activity [5]: Toxic

Structure (SMILES): O=C(CCC/C=C\C[C@@H]1[C@@H](CC[C@@H](O)CCc2ccccc2)[C@H](O)C[C@@H]1O)OCCCCO[N+](=O)[O-] [LATANOPROSTENE BUNOD]
- Activity [6]: Toxic

- IC50 [1]: 1.26 nM
- IC50 [2]: 0.66 nM
- fold change (FC) [7]: 28
- fold change (FC) [8]: 38
- Drug uptake(free) [18]: 14.12 ng/g
- Drug metabolism [19]: 371.53 ng/g
- Drug uptake(free) [20]: Not Active
- Drug metabolism [21]: Metabolite_Notdetected
- Drug metabolism [22]: 114.73 ng/mg
- Drug metabolism [23]: Metabolite_Detected
- Drug metabolism [24]: 0.96 ng/mL
- Drug metabolism [25]: 62.95 ng/mL
- Drug metabolism [26]: Metabolite_Notdetected
- Drug metabolism [27]: Metabolite_Notdetected
- Drug uptake(free) [28]: Active
- Drug metabolism [29]: Metabolite_Detected
- Drug metabolism [30]: 60.87 ng/mL
- Drug metabolism [40]: Metabolite_Detected
Structure (SMILES): CS(=O)(=O)O.CS(=O)(=O)O.NC[C@@H](C(=O)Nc1ccc2cnccc2c1)c1ccc(COC(=O)c2cccc(CO[N+](=O)[O-])c2)cc1
- Activity (Oryctolagus cuniculus [9]): Active
- Activity (Oryctolagus cuniculus [10]): Active
- Activity (Oryctolagus cuniculus [11]): Active
- Activity (Oryctolagus cuniculus [12]): inactive
- Activity (Mus musculus [13]): Active
- Activity (Mus musculus [14]): Active
- Activity (Mus musculus [15]): Active
- Activity (Mus musculus [16]): Active
- Activity (Mus musculus [17]): Active
- Activity [31]: 1.67
- Activity [32]: 1
- Activity [33]: 1.67
- Activity [34]: 1.67
- Activity [35]: 0.67
- Activity [36]: 1
- Activity [37]: 0.67
- Activity [5]: Toxic
- Activity [38]: Toxic
- Activity [39]: Toxic

- IC50 [1]: 1.48 nM
- IC50 [2]: 0.83 nM
Structure (SMILES): CS(=O)(=O)O.CS(=O)(=O)O.NCC(C(=O)Nc1ccc2cnccc2c1)c1ccc(COC(=O)c2ccc(CO[N+](=O)[O-])cc2)cc1 (stereo not drawn)
- Activity (Oryctolagus cuniculus [3]): Active
- Activity [5]: Toxic

- IC50 [2]: 13.1 nM
Structure (SMILES): C[C@H]1CNCCCN1S(=O)(=O)c1cccc2cncc(F)c12
